Conditions: for log10 BCF / log10 biotransformation half-life (days): fish

Structure (SMILES)	melting point [°C]	boiling point [°C]	other results
Oc1ccc2cccnc2c1	239		
COC(=O)C1(S(=O)(=O)c2ccccc2)CCCCC1	114		
CCCCCCn1c(=O)c2c(ncn2C)n(C)c1=O	82.5		
CCC(CO)(CO)COCC(CC)(CO)CO	110		ready biodegradability: not readily biodegradable
Cc1cc(Cl)ccc1O	51	209	log10 vapour pressure (mmHg): -1.62; ready biodegradability: not readily biodegradable; log10 BCF: 1.33; log10 biotransformation half-life (days): -0.83
CCC(C(C)=O)C(=O)OC (stereo unspecified)		182	
Cc1cc(N)ccc1N=Nc1ccc([N+](=O)[O-])cc1			log10 vapour pressure (mmHg): -9.15
C1CC[C@H]2CCC[C@@H]2C1 (racemic)	-53	167	
Oc1c(Cl)ccc(Cl)c1Cl	58		
Clc1cc(-c2c(Cl)ccc(Cl)c2Cl)c(Cl)c(Cl)c1Cl			log10 Henry constant (atm·m³/mol): -4.85; log10 biotransformation half-life (days): 2.47
CC(C)CCCCO		170	
CC#C[C@]1(O)CC[C@H]2[C@@H]3C[C@H](C)C4=CC(=O)CC[C@]4(C)[C@H]3CC[C@@]21C	102		
C=COCC	-116	35.5	log10 vapour pressure (mmHg): 2.71
CCS(=O)(=O)Cl		174	
O=[N+]([O-])c1cccc(-c2ccccc2)c1	62		
C[Si](C)(Cl)CCl		116	
CC(=O)NCCS	6.5		
CCN1C[C@]2(COC)[C@H](O)C[C@H](OC)[C@]34C1[C@H]([C@H](OC)[C@H]23)[C@]1(O)[C@H]2[C@@H](O)[C@](O)(C[C@H]24)[C@@H](OC)[C@@H]1O	132		
Sc1nc2ccccc2[nH]1			log10 BCF: 0.41
O=C(N[C@@H](Cc1ccccc1)C(=O)O)OCc1ccccc1	88.5		
O=CCCl	-16.3	85.5	log10 vapour pressure (mmHg): 1.81
OC1CCCC1C1CCCC1 (stereo unspecified)	20	236	
Oc1c(Br)c(Br)c(Br)c(Br)c1Br	230		ready biodegradability: not readily biodegradable
Cc1cc[nH]c(=O)c1	130	308	
O=Nc1ccc(O)c(N=O)c1O	168		
c1ccc(-c2coc(-c3ccccc3)n2)cc1	103	339	

Structure (SMILES)	melting point [°C]	boiling point [°C]	other results
CC(=O)Oc1ccccc1	-30	196	log10 vapour pressure (mmHg): -0.4
Brc1cccc2c1Oc1cccc(Br)c1O2	207		log10 vapour pressure (mmHg): -5.95
CCOC(=O)[C@@H](C)Oc1ccc(Oc2nc3ccc(Cl)cc3o2)cc1			log10 vapour pressure (mmHg): -7.52
CC(C)COC(=O)c1ccc(N)cc1	64.5		
Clc1cccc(-c2cc(Cl)c(Cl)cc2Cl)c1			log10 Henry constant (atm·m³/mol): -4
CCOC(=O)[C@@H](N)CS.Cl	124		
Cc1cnccc1N	108		
Oc1c(Cl)cc(Cl)cc1Sc1cc(Cl)cc(Cl)c1O	188		
Cc1c(C)c([N+](=O)[O-])c(C)c(C)c1[N+](=O)[O-]	212		
CC(C)(C)c1ccc(CCOc2ncnc3ccccc23)cc1	78.5		log10 vapour pressure (mmHg): -7.59
CN(C)C		2.87	log10 Henry constant (atm·m³/mol): -3.98; log10 vapour pressure (mmHg): 3.21; ready biodegradability: readily biodegradable
CCC(=O)C=C(C)CC		166	
Cc1cc2c(cc1Nc1ccccc1)C1(OC(=O)c3ccccc31)c1ccc(N(C)C3CCCCC3)cc1O2 (stereo unspecified)			ready biodegradability: not readily biodegradable
O=C1CCN(c2ccccc2)N1	126		
FC(Cl)=C(Cl)Cl	-109	71	
CCCCCCCCCc1ccccc1	-24	280	log10 vapour pressure (mmHg): -2.24
COc1cc(C=O)cc(OC)c1O	113		ready biodegradability: readily biodegradable
C=C1CC=C(C(C)C)CC1		174	
O=[N+]([O-])c1cc(Cl)c(Cl)c(Cl)c1	72.5		
CC=NNc1ccc([N+](=O)[O-])cc1[N+](=O)[O-]	166		
CCCCCCCCCCCC(N)=O	110		
OCCCCCCCCO	63		
CC1(C)C2C=C[C@]1(C)CC2	113	146	
Clc1ccc2c(c1)C(c1ccccc1)=NCc1nncn1-2	228		
CC1Cc2ccccc2O1 (stereo unspecified)		198	
C[Si](C)(C)CBr		116	

Structure (SMILES)	melting point [°C]	boiling point [°C]	other results
C=CCOCC1CO1 (stereo unspecified)		154	
O=C(O)CCCCCCCCCF	49		
FC(F)=C(F)C(F)(F)C(F)(F)C(F)(F)C(F)(F)C(F)(F)F		81	
COC(=O)C[C@@H](C)C(=O)OC		196	
O=C1OC(OC2OC(=O)C(Cl)=C2Cl)C(Cl)=C1Cl (stereo unspecified)	142		
O=CN(O)CC(=O)O	120		
FC(F)OCC(F)(F)F		29.3	log10 vapour pressure (mmHg): 2.81
O=C1NC(=O)c2cc([N+](=O)[O-])ccc21	201		
CCOc1cccc(OCC)c1	12.4	235	
Brc1c(Br)c(Br)c(-c2c(Br)c(Br)c(Br)c(Br)c2Br)c(Br)c1Br	375		log10 vapour pressure (mmHg): -9.4; ready biodegradability: not readily biodegradable; log10 BCF: 5.19
CC1(O)CCCCCC1		184	
O=C(OCC(O)CO)c1ccccc1Nc1ccnc2c(C(F)(F)F)cccc12 (stereo unspecified)	180		
C=COCCCCCCCCCCCCCCCCCC	30		
OCC1CO1 (stereo unspecified)			ready biodegradability: readily biodegradable
C=CC(=C)Cl	-130	59.4	log10 vapour pressure (mmHg): 2.33
O=C(O)c1cc(O)c(O)c(=O)c(O)c1	317		
CCCC(=O)N(CC)CC		206	
C#CC(C)Cl (stereo unspecified)		68.5	
CC(C)OC(=O)C(C(=O)OC(C)C)=C1SCCS1	54		log10 BCF: 1.57
CCCC(=O)Cl	-89	102	
C=CC(=O)OCC(C)C	-61	132	log10 vapour pressure (mmHg): 0.907
CCCCCCI	-74.2	181	log10 Henry constant (atm·m³/mol): -1.55; log10 vapour pressure (mmHg): 0.147; ready biodegradability: readily biodegradable
CCCCCCCCCCCCCCCCCCN=C=O	20	300	ready biodegradability: not readily biodegradable
OCCCC(F)(F)F		125	
CCC(Br)(Br)CBr		214	
OC[C@H]1O[C@@](CO)(O[C@H]2O[C@H](CO)[C@@H](O)[C@H](O)[C@H]2O)[C@@H](O)[C@@H]1O	186		

Structure (SMILES)	melting point [°C]	boiling point [°C]	other results
O=C(O)c1c(F)cccc1F	159		
C=CCI	-99.3	103	
Nc1c(O)cccc1[N+](=O)[O-]	216		
CCCCCCCCCCCCCCCCCCCCCCCCCCCCCC(=O)O	93.6		
CCOc1cc(Cl)c(N)c(Cl)c1	46	275	
C=C(C)c1cccc(C)c1		185	
O=C(CCCN1CCC(n2c(=O)[nH]c3ccccc32)CC1)c1ccc(F)cc1	171		
CCC(C)(CC)C(=O)O		207	
O=[N+]([O-])c1ccc(C(F)(F)F)cc1	39		
CNc1ccc2oc(C[C@@H]3OC4(CC[C@@H]3C)O[C@H](C(C)C(=O)c3ccc[nH]3)[C@H](C)C[C@H]4C)nc2c1C(=O)O (stereo partly specified)	182		
COC(=O)CCCl		156	
OCCN1CCCCC1	17.9	202	
FCC1CO1 (stereo unspecified)		85.5	
CCCCCCCC/C=C\CCCCCCCCCCCC(N)=O	77.5		ready biodegradability: readily biodegradable
CC1CCCC1=O (stereo unspecified)	-75	140	
O=C(O)c1ccc2c(c1)CCCC2	156		
Clc1cc(Cl)c2oc3cc(Cl)c(Cl)cc3c2c1	202		log10 vapour pressure (mmHg): -7.71
OCC(F)(F)C(F)(F)C(F)(F)C(F)F		140	
C=CCCCCl		105	
C#C[C@]1(O)CC[C@H]2[C@@H]3CCc4cc(OC5CCCC5)ccc4[C@H]3CC[C@@]21C	108		
COc1cc2c(c3oc(=O)c4c(c13)CCOC4=O)C1C=COC1O2 (stereo unspecified)	245		
CCC(C)(O)CC(C)C (stereo unspecified)		152	
C=C(Cl)c1ccccc1	-23	199	
Clc1ccc(Cl)s1	-40.5	162	log10 vapour pressure (mmHg): 0.934
CCC(CC)C(=O)OC		137	
CC1(C)CCC(=Cc2ccc(Cl)cc2)C1(O)Cn1cncn1 (stereo unspecified)	140		

Structure (SMILES)	melting point [°C]	boiling point [°C]	other results
CC(C)(C)c1ccc(Br)cc1	19	232	
N[C@@H](Cc1cc(I)c(O)c(I)c1)C(=O)O	213		
C=C(C)C(=O)CC	-69.5	118	
C[Si](C)(Cl)O[Si](C)(C)Cl	-37.5	138	
CCCCCCCCCCCCCCCO	45.5		log10 vapour pressure (mmHg): -4.41; ready biodegradability: readily biodegradable
COc1ccccc1F	-39	154	
N[C@@H](CC(=O)O)C(=O)O			ready biodegradability: readily biodegradable
C1=CCC2CC=CC2C1 (stereo unspecified)			ready biodegradability: not readily biodegradable
C=CCCC(C)O (stereo unspecified)		139	
O=C=Nc1ccc(Cc2ccc(N=C=O)cc2)cc1	38		
CCCCC/C=C\C/C=C\CCCCCCCC(=O)OC	-35		log10 vapour pressure (mmHg): -5.44
ClC(Cl)(Cl)Br	-5.7	105	log10 vapour pressure (mmHg): 1.59
FC(F)C(F)(F)C(F)Cl (stereo unspecified)	85	28.1	
CC(O)CCO (stereo unspecified)		208	log10 vapour pressure (mmHg): -1.7
CC(O)Cn1cnc2c1c(=O)n(C)c(=O)n2C (stereo unspecified)	136		
CNC(C)CCC=C(C)C (stereo unspecified)		177	
COC(=O)c1ccccc1C(=O)OC	5.5	284	log10 Koc (L/kg): 1.6; log10 vapour pressure (mmHg): -2.51; ready biodegradability: readily biodegradable
Brc1cc2c(cc1Br)Oc1ccccc1O2	158		log10 vapour pressure (mmHg): -5.92
CC1=CC(=O)OC1=O	7.5	214	
COC(C)(OC)OC		108	
CCCCCCCCCCCCCCCl	4.9	292	log10 vapour pressure (mmHg): -3.14
ON=C(C(=NO)c1ccco1)c1ccco1	167		
OC[C@@H](O)[C@H](O)[C@@H](O)CO	98.8		ready biodegradability: readily biodegradable

Source: the OPERA property sets (Mansouri et al. 2018)
